In ChEMBL document CHEMBL1201862, “PubChem BioAssay data set” (2004):
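Tested at 5 concentrations; 48 h exposure; 96-well plates; endpoints linearly interpolated, else capped at highest concentration. Abbreviation: GI50, concentration required for 50% inhibition of growth.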 Calls of active or inactive are those of the source. No stated cut-off is given here; in the data, active = GI50 up to about 1.1 µM and inactive = higher.

Tests used:
Assay in all cases: NCI-60 cell line screen, 48 h
[1] = system: HOP-92
[2] = system: CAKI-1
[3] = system: MDA-MB-435
[4] = system: MDA-N
[5] = system: Malme-3M
[6] = system: HT-29
[7] = system: MDA-MB-231
[8] = system: 786-0
[9] = system: CCRF-CEM
[10] = system: PC-3
[11] = system: EKVX
[12] = system: OVCAR-8
[13] = system: M14
[14] = system: SK-MEL-28
[15] = system: SK-OV-3
[16] = system: SF-539
[17] = system: RXF 393
[18] = system: HCT-15
[19] = system: COLO 205
[20] = system: SNB-19
[21] = system: SNB-75
[22] = system: OVCAR-3
[23] = system: SK-MEL-5
[24] = system: ACHN
[25] = system: BT-549
[26] = system: SF-295
[27] = system: HCT-116
[28] = system: TK-10
[29] = system: UACC-62
[30] = system: IGROV-1
[31] = system: UACC-257
[32] = system: HOP-62
[33] = system: MOLT-4
[34] = system: NCI-H460
[35] = system: KM12
[36] = system: SN12C
[37] = system: MCF7
[38] = system: SK-MEL-2
[39] = system: U-251
[40] = system: NCI/ADR-RES
[41] = system: NCI-H23
[42] = system: A549
[43] = system: SF-268
[44] = system: UO-31
[45] = system: HCC 2998
[46] = system: SR
[47] = system: RPMI-8226
[48] = system: OVCAR-5
[49] = system: T47D
[50] = system: NCI-H522
[51] = system: OVCAR-4
[52] = system: NCI-H226
[53] = system: K562
[54] = system: DU-145
[55] = system: HL-60
[56] = system: SW-620
[57] = system: Hs-578T
[58] = system: LOX IMVI
[59] = system: A498

## O=C(O)c1ccc(NNC(=O)c2cccc3c(=O)c4ccccc4[nH]c23)cc1
[1]
  GI50: 65 µM (inactive)
[2]
  GI50: > 100 µM (inactive)
[3]
  GI50: > 100 µM (inactive)
[4]
  GI50: > 100 µM (inactive)
[5]
  GI50: 97.9 µM (inactive)
[6]
  GI50: > 100 µM (inactive)
[7]
  GI50: 75.3 µM (inactive)
[8]
  GI50: > 100 µM (inactive)
[9]
  GI50: 66.2 µM (inactive)
[10]
  GI50: > 100 µM (inactive)
[11]
  GI50: 57.9 µM (inactive)
[12]
  GI50: > 100 µM (inactive)
[13]
  GI50: > 100 µM (inactive)
[14]
  GI50: > 100 µM (inactive)
[15]
  GI50: > 100 µM (inactive)
[16]
  GI50: > 100 µM (inactive)
[17]
  GI50: > 100 µM (inactive)
[18]
  GI50: > 100 µM
[19]
  GI50: > 100 µM (inactive)
[20]
  GI50: > 100 µM (inactive)
[21]
  GI50: > 100 µM (inactive)
[22]
  GI50: > 100 µM (inactive)
[23]
  GI50: 55.5 µM (inactive)
[24]
  GI50: 74.1 µM (inactive)
[25]
  GI50: 85.7 µM (inactive)
[26]
  GI50: > 100 µM (inactive)
[27]
  GI50: > 100 µM (inactive)
[28]
  GI50: > 100 µM (inactive)
[29]
  GI50: > 100 µM (inactive)
[30]
  GI50: > 100 µM (inactive)
[31]
  GI50: > 100 µM (inactive)
[32]
  GI50: > 100 µM (inactive)
[33]
  GI50: 78.9 µM (inactive)
[34]
  GI50: 92.9 µM (inactive)
[35]
  GI50: > 100 µM (inactive)
[36]
  GI50: > 100 µM (inactive)
[37]
  GI50: > 100 µM (inactive)
[38]
  GI50: > 100 µM (inactive)
[39]
  GI50: 80.7 µM (inactive)
[40]
  GI50: > 100 µM (inactive)
[41]
  GI50: > 100 µM (inactive)
[42]
  GI50: > 100 µM (inactive)
[43]
  GI50: > 100 µM (inactive)
[44]
  GI50: 89.7 µM (inactive)
[45]
  GI50: > 100 µM (inactive)
[46]
  GI50: 93.5 µM (inactive)
[47]
  GI50: > 100 µM (inactive)
[48]
  GI50: > 100 µM (inactive)
[49]
  GI50: 31.6 µM (inactive)
[50]
  GI50: 25.4 µM (inactive)
[51]
  GI50: > 100 µM (inactive)
[52]
  GI50: > 100 µM (inactive)
[53]
  GI50: 58.6 µM (inactive)
[54]
  GI50: > 100 µM (inactive)
[55]
  GI50: 50.8 µM (inactive)
[56]
  GI50: > 100 µM (inactive)
[57]
  GI50: > 100 µM (inactive)
[58]
  GI50: 44.6 µM (inactive)

## C=C1C/C(=C/C)C(=O)O[C@@H]2CCN3CC=C(COC(=O)[C@]1(C)O)[C@H]23 [SENECIPHYLLINE]
[1]
  GI50: > 100 µM (inactive)
[2]
  GI50: > 100 µM (inactive)
[3]
  GI50: > 100 µM (inactive)
[4]
  GI50: > 100 µM (inactive)
[6]
  GI50: > 100 µM (inactive)
[7]
  GI50: > 100 µM (inactive)
[8]
  GI50: > 100 µM (inactive)
[9]
  GI50: > 100 µM (inactive)
[10]
  GI50: > 100 µM (inactive)
[11]
  GI50: > 100 µM (inactive)
[12]
  GI50: > 100 µM (inactive)
[13]
  GI50: > 100 µM (inactive)
[14]
  GI50: > 100 µM (inactive)
[15]
  GI50: > 100 µM (inactive)
[16]
  GI50: > 100 µM (inactive)
[18]
  GI50: > 100 µM
[19]
  GI50: > 100 µM (inactive)
[20]
  GI50: > 100 µM (inactive)
[21]
  GI50: > 100 µM (inactive)
[22]
  GI50: > 100 µM (inactive)
[23]
  GI50: > 100 µM (inactive)
[24]
  GI50: > 100 µM (inactive)
[25]
  GI50: > 100 µM (inactive)
[26]
  GI50: > 100 µM (inactive)
[27]
  GI50: > 100 µM (inactive)
[28]
  GI50: > 100 µM (inactive)
[29]
  GI50: > 100 µM (inactive)
[30]
  GI50: > 100 µM (inactive)
[31]
  GI50: > 100 µM (inactive)
[32]
  GI50: > 100 µM (inactive)
[34]
  GI50: 84.9 µM (inactive)
[35]
  GI50: > 100 µM (inactive)
[37]
  GI50: > 100 µM (inactive)
[38]
  GI50: > 100 µM (inactive)
[39]
  GI50: > 100 µM (inactive)
[40]
  GI50: > 100 µM (inactive)
[41]
  GI50: > 100 µM (inactive)
[42]
  GI50: > 100 µM (inactive)
[43]
  GI50: > 100 µM (inactive)
[44]
  GI50: > 100 µM (inactive)
[45]
  GI50: > 100 µM (inactive)
[46]
  GI50: > 100 µM (inactive)
[47]
  GI50: > 100 µM (inactive)
[48]
  GI50: > 100 µM (inactive)
[49]
  GI50: > 100 µM (inactive)
[50]
  GI50: > 100 µM (inactive)
[51]
  GI50: > 100 µM (inactive)
[52]
  GI50: 35.5 µM (inactive)
[53]
  GI50: > 100 µM (inactive)
[54]
  GI50: > 100 µM (inactive)
[59]
  GI50: > 100 µM (inactive)
[55]
  GI50: > 100 µM (inactive)
[56]
  GI50: > 100 µM (inactive)
[57]
  GI50: > 100 µM (inactive)
[58]
  GI50: > 100 µM (inactive)
